This passage reports IC50 results from patent US20250177363A1, “SUBSTITUTED IMIDAZOPYRIDINYL COMPOUNDS USEFUL AS INHIBITORS OF TLR9” (Bristol-Myers Squibb Company, priority 2022, published 2025).

A word on the IC50: it is the concentration needed to halve the response being measured. A high value points to a need for much substance.

What all share (format): cell-based
The target in one experiment is T1, human TLR8 (Homo sapiens, UniProt Q9NR97).
T1 construct: host or cells: HEK-Blue cells
T1 sequence (Q9NR97 27-1041): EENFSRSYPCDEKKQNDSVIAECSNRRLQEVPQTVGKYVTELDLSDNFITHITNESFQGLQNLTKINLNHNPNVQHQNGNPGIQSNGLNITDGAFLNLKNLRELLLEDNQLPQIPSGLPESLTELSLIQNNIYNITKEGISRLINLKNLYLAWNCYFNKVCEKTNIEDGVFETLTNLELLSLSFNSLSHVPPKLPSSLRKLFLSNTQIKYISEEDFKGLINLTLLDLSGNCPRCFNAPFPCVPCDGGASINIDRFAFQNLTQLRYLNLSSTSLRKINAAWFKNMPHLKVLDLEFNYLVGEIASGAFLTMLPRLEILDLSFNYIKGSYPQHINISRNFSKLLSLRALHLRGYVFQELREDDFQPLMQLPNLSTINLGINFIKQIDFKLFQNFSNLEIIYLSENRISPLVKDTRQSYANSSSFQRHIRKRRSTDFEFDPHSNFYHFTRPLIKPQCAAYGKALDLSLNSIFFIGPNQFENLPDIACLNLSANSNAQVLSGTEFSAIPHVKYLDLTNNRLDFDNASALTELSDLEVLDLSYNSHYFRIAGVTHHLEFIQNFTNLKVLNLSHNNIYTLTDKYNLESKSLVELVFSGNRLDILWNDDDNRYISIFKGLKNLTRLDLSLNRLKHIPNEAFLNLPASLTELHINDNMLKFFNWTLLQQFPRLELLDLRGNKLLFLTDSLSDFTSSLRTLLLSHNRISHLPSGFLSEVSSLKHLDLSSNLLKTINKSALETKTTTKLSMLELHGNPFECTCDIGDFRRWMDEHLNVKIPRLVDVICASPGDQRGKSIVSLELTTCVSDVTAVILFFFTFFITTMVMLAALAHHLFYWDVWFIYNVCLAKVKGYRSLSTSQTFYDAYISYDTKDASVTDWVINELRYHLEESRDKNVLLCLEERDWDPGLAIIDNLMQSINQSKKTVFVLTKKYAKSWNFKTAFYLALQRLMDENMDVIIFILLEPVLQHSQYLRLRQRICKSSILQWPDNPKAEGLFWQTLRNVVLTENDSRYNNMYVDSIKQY
As to the kind of experiment: TLR8 inhibition reporter assay (HEK-Blue, SEAP). The following applies: HEK-Blue cells overexpressing human TLR8, ligand R848 14.25 μM, 22 hour incubation. The gist of the method: (§1)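 HEK-Blue cells expressing human TLR7, TLR8 or TLR9 with NF-κB/AP-1-driven SEAP reporter; compounds 0.85 nM–50 μM, pre-treated 60 min. Stimulation: gardiquimod 2.5 μM (TLR7), R848 14.25 μM (TLR8), ODN2006 200 nM (TLR9); SEAP read after 22 h at 37 °C. Percent inhibition normalized between agonist+DMSO and known-inhibitor wells.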
Background: Reporter assays use an easily measured gene product as a stand-in for the process of interest.

A further experiment has as its target T2, human TLR7 (Homo sapiens, UniProt Q9NYK1).
T2 construct: host or cells: HEK-Blue cells
T2 sequence (Q9NYK1 27-1049): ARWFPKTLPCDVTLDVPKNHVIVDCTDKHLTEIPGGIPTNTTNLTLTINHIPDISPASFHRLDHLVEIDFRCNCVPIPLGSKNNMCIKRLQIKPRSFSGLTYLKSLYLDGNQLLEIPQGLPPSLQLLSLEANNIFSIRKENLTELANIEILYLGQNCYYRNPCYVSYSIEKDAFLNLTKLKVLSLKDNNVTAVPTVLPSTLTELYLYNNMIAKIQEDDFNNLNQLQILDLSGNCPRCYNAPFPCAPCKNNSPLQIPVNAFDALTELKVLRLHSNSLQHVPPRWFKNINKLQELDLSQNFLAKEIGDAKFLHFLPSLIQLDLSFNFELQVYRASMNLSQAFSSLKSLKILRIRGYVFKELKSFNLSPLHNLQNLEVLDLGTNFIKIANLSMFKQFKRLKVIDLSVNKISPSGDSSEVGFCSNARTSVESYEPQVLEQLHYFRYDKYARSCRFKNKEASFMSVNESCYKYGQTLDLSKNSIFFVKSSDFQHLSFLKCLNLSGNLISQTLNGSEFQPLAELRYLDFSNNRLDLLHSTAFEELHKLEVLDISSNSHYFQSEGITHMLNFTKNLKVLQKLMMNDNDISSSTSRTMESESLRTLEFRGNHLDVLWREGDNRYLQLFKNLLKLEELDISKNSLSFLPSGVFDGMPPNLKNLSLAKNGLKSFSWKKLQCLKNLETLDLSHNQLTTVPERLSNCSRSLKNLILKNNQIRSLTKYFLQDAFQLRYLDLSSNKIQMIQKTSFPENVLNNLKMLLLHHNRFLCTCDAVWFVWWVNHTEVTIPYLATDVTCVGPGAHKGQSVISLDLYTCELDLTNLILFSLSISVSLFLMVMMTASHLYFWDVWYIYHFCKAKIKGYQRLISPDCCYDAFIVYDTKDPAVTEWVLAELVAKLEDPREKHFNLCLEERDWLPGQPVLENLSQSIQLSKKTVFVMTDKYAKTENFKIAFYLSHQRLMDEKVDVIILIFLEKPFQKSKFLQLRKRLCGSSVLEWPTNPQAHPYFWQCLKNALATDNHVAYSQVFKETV
The experiment in a line: TLR7 inhibition reporter assay (HEK-Blue, SEAP). The following applies: HEK-Blue cells overexpressing human TLR7, ligand gardiquimod 2.5 μM, 22 hour incubation. The gist of the method:
as §1

A further experiment addresses T3, human TLR9 (Homo sapiens, UniProt Q9NR96).
T3 construct: host or cells: HEK-Blue cells
T3 sequence (Q9NR96 26-1032): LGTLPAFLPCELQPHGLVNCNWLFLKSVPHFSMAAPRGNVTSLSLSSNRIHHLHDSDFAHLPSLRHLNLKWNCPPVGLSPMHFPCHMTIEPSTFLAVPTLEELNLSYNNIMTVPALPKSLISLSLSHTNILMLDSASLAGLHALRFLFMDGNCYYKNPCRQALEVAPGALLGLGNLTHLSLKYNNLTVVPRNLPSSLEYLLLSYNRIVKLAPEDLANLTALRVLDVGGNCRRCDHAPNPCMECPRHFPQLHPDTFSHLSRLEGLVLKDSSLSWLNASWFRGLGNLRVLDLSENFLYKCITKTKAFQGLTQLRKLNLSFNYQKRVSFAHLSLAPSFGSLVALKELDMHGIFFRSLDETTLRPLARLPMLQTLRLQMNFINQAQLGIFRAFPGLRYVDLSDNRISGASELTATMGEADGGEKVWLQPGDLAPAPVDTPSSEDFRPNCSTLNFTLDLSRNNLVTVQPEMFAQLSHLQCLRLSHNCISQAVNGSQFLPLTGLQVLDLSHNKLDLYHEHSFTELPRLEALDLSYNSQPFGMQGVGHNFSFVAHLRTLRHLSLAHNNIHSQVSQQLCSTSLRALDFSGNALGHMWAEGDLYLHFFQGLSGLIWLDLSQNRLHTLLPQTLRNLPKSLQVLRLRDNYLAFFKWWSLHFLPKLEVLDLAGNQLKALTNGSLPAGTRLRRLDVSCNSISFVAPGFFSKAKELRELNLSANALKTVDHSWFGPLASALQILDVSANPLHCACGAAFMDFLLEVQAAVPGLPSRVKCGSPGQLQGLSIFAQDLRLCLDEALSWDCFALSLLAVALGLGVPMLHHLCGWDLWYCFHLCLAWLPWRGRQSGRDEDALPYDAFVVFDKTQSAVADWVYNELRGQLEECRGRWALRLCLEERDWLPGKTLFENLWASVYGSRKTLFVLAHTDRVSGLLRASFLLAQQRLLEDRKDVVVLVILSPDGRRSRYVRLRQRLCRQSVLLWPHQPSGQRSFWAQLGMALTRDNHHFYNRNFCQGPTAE
The experiment in a line: TLR9 inhibition reporter assay (HEK-Blue, SEAP). The following applies: HEK-Blue cells overexpressing human TLR9, ligand ODN2006 200 nM, 22 hour incubation. The gist of the method: as §1

Structures are written as SMILES.

Take `CC(C)N1CC2(CCN(c3ccc(-c4ccc5nc(-c6ccc(S(C)(=O)=O)cc6)n(C)c5n4)cc3)CC2)C1` [Example 61, 5-(4-(2-isopropyl-2,7-diazaspiro[3.5]nonan-7-yl)phenyl)-3-methyl-2-(4-(methylsulfonyl)phenyl)-3H-imidazo[4,5-b]pyridine]: the IC50 against human TLR8 worked out at 18 µM; against human TLR7, 16 µM; against human TLR9 it was 0.56 µM.
Consider `CC(C)CN1CC2(CCN(c3ccc(-c4ccc5nc(-c6ccc(S(C)(=O)=O)cc6)n(C)c5n4)cc3)CC2)C1` [Example 62, 5-(4-(2-isobutyl-2,7-diazaspiro[3.5]nonan-7-yl)phenyl)-3-methyl-2-(4-(methylsulfonyl)phenyl)-3H-imidazo[4,5-b]pyridine], for which the IC50 stood at 6.1 µM at human TLR8, 15 µM on human TLR7 and 0.59 µM at human TLR9.
On to `Cn1c(-c2ccc(S(C)(=O)=O)cc2)nc2ccc(-c3ccc(N4CCC5(CC4)CN(CC(C)(C)O)C5)cc3)nc21` [Example 63, 2-methyl-1-(7-(4-(3-methyl-2-(4-(methylsulfonyl)phenyl)-3H-imidazo[4,5-b]pyridin-5-yl)phenyl)-2,7-diazaspiro[3.5]nonan-2-yl)propan-2-ol], for which the 50% inhibitory concentration (IC50) against human TLR8 was determined as 44 µM; on human TLR7, 4.2 µM; on human TLR9, 0.55 µM.
As to `COc1ccc(-c2nc3c(C)cc(-c4ccc(N5CC6(CN(CC(C)C)C6)C5)cc4)nc3n2C)cc1OC` [Example 64, 2-(3,4-dimethoxyphenyl)-5-(4-(6-isobutyl-2,6-diazaspiro[3.3]heptan-2-yl)phenyl)-3,7-dimethyl-3H-imidazo[4,5-b]pyridine], the IC50 against human TLR8 worked out at 9.8 µM; against human TLR7, 6.3 µM; at human TLR9 it was 1.4 µM.
For `CC(C)N1CC2(CN(c3ccc(-c4ccc5nc(-c6ccc(S(C)(=O)=O)cc6)n(C)c5n4)cc3)C2)C1` [Example 65, 5-(4-(6-isopropyl-2,6-diazaspiro[3.3]heptan-2-yl)phenyl)-3-methyl-2-(4-(methylsulfonyl)phenyl)-3H-imidazo[4,5-b]pyridine], in that order: 3 µM, more than 50 µM and 0.74 µM.
On to `CC(C)CN1CC2(C1)CN(c1ccc(-c3ccc4nc(-c5ccc(S(C)(=O)=O)cc5)n(C)c4n3)cc1)C2` [Example 66, 5-(4-(6-isobutyl-2,6-diazaspiro[3.3]heptan-2-yl)phenyl)-3-methyl-2-(4-(methylsulfonyl)phenyl)-3H-imidazo[4,5-b]pyridine], for which the IC50 against human TLR8 is more than 25 µM; against human TLR7, more than 50 µM; at human TLR9 it was 0.57 µM.
